Here are results for 47 molecules from the Biogen ADME set (Fang et al. 2023).

The structures appear in SMILES notation. Values after ≈ are worked out from the molar mass of the structure shown.

For the data set the following is noted: for aqueous solubility: pH 6.8.

As for `O=C(NCCc1cnn(-c2ccccc2)c1)N1CCC1`, the MDR1-MDCK efflux ratio was found to be 1.34; the intrinsic clearance, human liver microsomes was no more than 4.74 mL/min/kg; the intrinsic clearance, rat liver microsomes was found to be 54.8 mL/min/kg; the aqueous solubility was 39.6 µg/mL (≈ 146 µM).

Molecule `CC(C)NS(=O)(=O)c1ccc2c(c1)oc(=O)c1cc(S(=O)(=O)NC(C)C)ccc12` registered an aqueous solubility of 0.47 µg/mL (≈ 1.07 µM).

In the case of `N#CC1(NC(=O)Cc2cc3c(ccc4ccccc43)o2)CCOCC1`, the intrinsic clearance, human liver microsomes turned out to be 87.3 mL/min/kg and the intrinsic clearance, rat liver microsomes was found to be 705 mL/min/kg.

With `CCc1cnc(CCNc2cncc(Cl)n2)s1`, the intrinsic clearance, human liver microsomes was found to be 183 mL/min/kg; the intrinsic clearance, rat liver microsomes was 855 mL/min/kg; the aqueous solubility is 48 µg/mL (≈ 179 µM).

Take `COC(=O)N1CCCN(C(=O)c2ccc(-c3ccccc3Cl)o2)CC1`: the MDR1-MDCK efflux ratio came out at 0.661; the intrinsic clearance, human liver microsomes amounted to 174 mL/min/kg; the intrinsic clearance, rat liver microsomes was found to be 4850 mL/min/kg; the aqueous solubility turned out to be 58.9 µg/mL (≈ 162 µM).

`Cc1cc(C(=O)NC2CCN(c3ncnc4sc(C)c(C)c34)CC2)on1` returned an intrinsic clearance, human liver microsomes of 43.3 mL/min/kg; an intrinsic clearance, rat liver microsomes of 368 mL/min/kg; an aqueous solubility of 2.49 µg/mL (≈ 6.7 µM).

`COc1nc(C)nc(N(C)Cc2nccs2)c1C`: the MDR1-MDCK efflux ratio was determined as 0.467; the intrinsic clearance, human liver microsomes is 131 mL/min/kg; the intrinsic clearance, rat liver microsomes stood at 508 mL/min/kg; the aqueous solubility was found to be 29.8 µg/mL (≈ 113 µM).

Turning to `COC(C)(C)CCNC(=O)CC1CC(C)(C)NC(C)(C)C1`, the MDR1-MDCK efflux ratio came to 12.9; the intrinsic clearance, human liver microsomes was no more than 4.74 mL/min/kg; the intrinsic clearance, rat liver microsomes came to 41.1 mL/min/kg.

For the molecule `CN(C)C(=O)C1(Cc2ccccc2-c2ccccc2)CCN(C(=O)c2cnn(C)c2)CC1`, the MDR1-MDCK efflux ratio is 25.1; the fraction unbound, human plasma amounted to 0.11; the fraction unbound, rat plasma was 0.14; the intrinsic clearance, human liver microsomes was 464 mL/min/kg. Besides, the intrinsic clearance, rat liver microsomes was found to be 1250 mL/min/kg.

On to `CC(C)CN(Cc1cnn(C)c1)C(=O)c1cccc(-c2cnccn2)c1`, for which the MDR1-MDCK efflux ratio was 7.22; the intrinsic clearance, human liver microsomes worked out at 448 mL/min/kg; the intrinsic clearance, rat liver microsomes is 4750 mL/min/kg.

With `CC1(C)[C@H]2CC=C(CN3CCC4(CCC(=O)N4)CC3)[C@@H]1C2`, the MDR1-MDCK efflux ratio is 0.825; the intrinsic clearance, human liver microsomes was no more than 4.74 mL/min/kg; the intrinsic clearance, rat liver microsomes is 196 mL/min/kg.

Consider `CN(Cc1nc2c(s1)CCCC2)c1cnccn1`, for which the MDR1-MDCK efflux ratio was 0.576; the intrinsic clearance, human liver microsomes is 131 mL/min/kg; the intrinsic clearance, rat liver microsomes was found to be 1280 mL/min/kg.

In the case of `Cc1ccc2cccc(OCC(=O)N(C)c3ccccc3)c2n1`, the MDR1-MDCK efflux ratio came out at 1.52; the intrinsic clearance, human liver microsomes is 126 mL/min/kg; the intrinsic clearance, rat liver microsomes turned out to be 482 mL/min/kg; the aqueous solubility is 55 µg/mL (≈ 179 µM).

Regarding `Cc1ccc(-c2ccc(-c3nccn3CCCn3cnnc3)o2)cc1`, the MDR1-MDCK efflux ratio was found to be 123; the intrinsic clearance, human liver microsomes was found to be 15.7 mL/min/kg; the intrinsic clearance, rat liver microsomes turned out to be 541 mL/min/kg; the aqueous solubility turned out to be 36.8 µg/mL (≈ 110 µM).

Regarding `Cc1ccc(CNC(=O)CN2CCC(n3nnc4cc(C)ccc43)CC2)cc1`, the MDR1-MDCK efflux ratio came to 3.73; the intrinsic clearance, human liver microsomes was found to be 155 mL/min/kg; the intrinsic clearance, rat liver microsomes is 1510 mL/min/kg; the aqueous solubility is 30.2 µg/mL (≈ 79.9 µM).

With `NS(=O)(=O)OC[C@@H]1C[C@@H](n2ccc3c(N[C@H]4CCc5ccccc54)ncnc32)C[C@@H]1O`, the MDR1-MDCK efflux ratio came to 51.9; the intrinsic clearance, human liver microsomes amounted to 40.9 mL/min/kg; the intrinsic clearance, rat liver microsomes was determined as 680 mL/min/kg; the aqueous solubility is 44.4 µg/mL (≈ 100 µM).

Turning to `CCOC(C)C(=O)N1CCC(n2c(=O)[nH]c3ccccc32)CC1` (centres undefined), the intrinsic clearance, human liver microsomes is no more than 4.74 mL/min/kg; the intrinsic clearance, rat liver microsomes amounted to 75.8 mL/min/kg; the aqueous solubility was found to be 64.7 µg/mL (≈ 204 µM).

Regarding `CNCc1cc(N(C)C)nc(C2CCCN2C(=O)C2CCCC2)n1` (centres undefined), the MDR1-MDCK efflux ratio amounted to 45.6; the intrinsic clearance, human liver microsomes is no more than 4.74 mL/min/kg; the intrinsic clearance, rat liver microsomes stood at 249 mL/min/kg.

`COc1ccc(CCC(=O)N2CCN(C(=O)c3cc4n(n3)CCCC4)CC2)cc1`: the MDR1-MDCK efflux ratio is 5.94; the intrinsic clearance, human liver microsomes came out at 16.3 mL/min/kg; the intrinsic clearance, rat liver microsomes turned out to be 867 mL/min/kg; the aqueous solubility is 83.4 µg/mL (≈ 210 µM).

Consider `COc1nc2sc(C(=O)NC3CC3)c(N)c2c(C)c1Cl`, for which the fraction unbound, human plasma was found to be 0.0176; the fraction unbound, rat plasma stood at 0.0283; the intrinsic clearance, human liver microsomes turned out to be 9.77 mL/min/kg; the intrinsic clearance, rat liver microsomes stood at 133 mL/min/kg.

On to `COc1cccc(OC)c1-c1ccc(OCCN2CCCC2)cc1`, for which the MDR1-MDCK efflux ratio was 1.4; the intrinsic clearance, human liver microsomes is no more than 4.74 mL/min/kg; the intrinsic clearance, rat liver microsomes came to 2290 mL/min/kg.

Molecule `Cc1cnc(-c2nc(NCc3cccnc3)ncc2-c2cc(C)no2)cn1` came in with an intrinsic clearance, human liver microsomes of 17.1 mL/min/kg and an intrinsic clearance, rat liver microsomes of 261 mL/min/kg.

Take `NC1(c2ccc(-c3nc4ccn5c(=O)[nH]nc5c4cc3-c3ccccc3)cc2)CCC1`: the intrinsic clearance, human liver microsomes turned out to be 14.7 mL/min/kg and the intrinsic clearance, rat liver microsomes was 17.1 mL/min/kg.

As to `CC(C)n1cc(CN2CCC(c3nc(N(C)C)no3)CC2)cn1`, the MDR1-MDCK efflux ratio worked out at 1.79; the intrinsic clearance, human liver microsomes was no more than 4.74 mL/min/kg; the intrinsic clearance, rat liver microsomes was 179 mL/min/kg.

In the case of `COc1ccc(=O)n(Cc2noc3c2CCCC3)n1`, the MDR1-MDCK efflux ratio came to 0.806; the intrinsic clearance, human liver microsomes worked out at 11.4 mL/min/kg; the intrinsic clearance, rat liver microsomes was determined as 270 mL/min/kg.

For `CC(=O)N[C@H]1/C(=N\OC(=O)Nc2ccccc2)O[C@H](CO)[C@H](O)[C@@H]1O`, the aqueous solubility worked out at 66.4 µg/mL (≈ 188 µM).

With `COc1ccc(C(=O)N(C)Cc2nccn2C)c(F)c1`, the MDR1-MDCK efflux ratio was 2.22; the intrinsic clearance, human liver microsomes is no more than 4.74 mL/min/kg; the intrinsic clearance, rat liver microsomes is 53.8 mL/min/kg; the aqueous solubility worked out at 52.5 µg/mL (≈ 189 µM).

Consider `Cc1cc(C)c(NC(=O)Cn2nnn(-c3cccs3)c2=O)c(C)c1`, for which the MDR1-MDCK efflux ratio was 0.738 and the aqueous solubility was 0.77 µg/mL (≈ 2.24 µM).

As to `CCn1c(CN2CCCCCC2)nc2ccccc2c1=O`, the MDR1-MDCK efflux ratio is 0.561; the intrinsic clearance, human liver microsomes is 25.7 mL/min/kg; the intrinsic clearance, rat liver microsomes amounted to 2240 mL/min/kg.

With `Cc1cccc(OCC(=O)Nc2ccc3c(c2)C(=O)N(c2ccccc2)C3=O)c1`, the MDR1-MDCK efflux ratio came out at 15.9 and the aqueous solubility amounted to 0.41 µg/mL (≈ 1.06 µM).

In turn, `O=C(Nc1nc2ccccc2[nH]1)c1cc(Cl)ccc1Cl` had an aqueous solubility of 0.55 µg/mL (≈ 1.8 µM).

For `O=C(NC1CCCCC1)C1=CCN(C(=O)C2CC2)C1`, the MDR1-MDCK efflux ratio was found to be 2.4; the intrinsic clearance, human liver microsomes was no more than 4.74 mL/min/kg; the intrinsic clearance, rat liver microsomes is 29.8 mL/min/kg.

`Cc1cc(C)nc(N2Cc3ccccc3C2=N)n1`: the MDR1-MDCK efflux ratio is 0.807; the intrinsic clearance, human liver microsomes worked out at 24.6 mL/min/kg; the intrinsic clearance, rat liver microsomes is 1160 mL/min/kg.

In the case of `O=C1NCC2(C/C=C/CCOc3ccccc31)CCN(C(=O)c1ccc3[nH]nnc3c1)CC2`, the MDR1-MDCK efflux ratio was 45.8; the intrinsic clearance, human liver microsomes was determined as 42.8 mL/min/kg; the intrinsic clearance, rat liver microsomes was 165 mL/min/kg; the aqueous solubility was found to be 24.4 µg/mL (≈ 54.9 µM).

`Cc1cc(N(C)C)nc(-n2cnc(C#N)n2)n1`: the MDR1-MDCK efflux ratio stood at 0.595; the intrinsic clearance, human liver microsomes stood at 33.6 mL/min/kg; the intrinsic clearance, rat liver microsomes turned out to be 79.2 mL/min/kg; the aqueous solubility was 23.3 µg/mL (≈ 101 µM).

The molecule `CC(C)(C)C(=O)Nc1sc2c(c1C#N)CCC2` registered an aqueous solubility of 1.91 µg/mL (≈ 7.69 µM).

For the molecule `OC[C@@H](c1ccccc1)n1cc(CCc2ccccc2)nn1`, the MDR1-MDCK efflux ratio came out at 0.889; the intrinsic clearance, human liver microsomes amounted to 24.7 mL/min/kg; the intrinsic clearance, rat liver microsomes turned out to be 694 mL/min/kg; the aqueous solubility turned out to be 14 µg/mL (≈ 47.9 µM).

As for `CC(C)(C)C(=O)Nc1nnc(Cc2ccccc2)s1`, the MDR1-MDCK efflux ratio was determined as 1.19; the intrinsic clearance, human liver microsomes was no more than 4.74 mL/min/kg; the intrinsic clearance, rat liver microsomes came to 658 mL/min/kg; the aqueous solubility was found to be 35.2 µg/mL (≈ 128 µM).

Consider `CN(CCc1ccncc1)c1ncccc1C#N`, for which the MDR1-MDCK efflux ratio stood at 0.743; the intrinsic clearance, human liver microsomes came to 44.3 mL/min/kg; the intrinsic clearance, rat liver microsomes was 552 mL/min/kg.

Consider `Cc1sc2nc(CN3CCCC3)nc(N)c2c1C`, for which the MDR1-MDCK efflux ratio turned out to be 17.6; the intrinsic clearance, human liver microsomes was no more than 4.74 mL/min/kg; the intrinsic clearance, rat liver microsomes came to 2760 mL/min/kg; the aqueous solubility was 44.6 µg/mL (≈ 170 µM).

In the case of `Cc1nn(C(C)C)c(C)c1S(=O)(=O)NCC1CCN(C(=O)C2CC2)CC1`, the MDR1-MDCK efflux ratio is 83.8; the intrinsic clearance, human liver microsomes was determined as 92.1 mL/min/kg; the intrinsic clearance, rat liver microsomes was 445 mL/min/kg.

Turning to `C[C@@H](c1ccc2ccc(O[C@H]3CC[C@@H](C(F)(F)F)CC3)c(C(F)(F)F)c2c1)N1C2CCC1CC(C(=O)O)C2` (some centres undefined), the MDR1-MDCK efflux ratio stood at 51.8; the intrinsic clearance, human liver microsomes came out at 7.58 mL/min/kg; the intrinsic clearance, rat liver microsomes came out at 35.6 mL/min/kg; the aqueous solubility was 73.2 µg/mL (≈ 135 µM).

Molecule `CC(C)Cc1ccc(-c2nc(-c3ccc(CN4CC(C(=O)O)C4)cc3)no2)cc1` had an intrinsic clearance, human liver microsomes of 7.6 mL/min/kg and an intrinsic clearance, rat liver microsomes of 17 mL/min/kg.

On to `c1ccc(CC2=NCCN2)cc1`, for which the MDR1-MDCK efflux ratio amounted to 0.361; the intrinsic clearance, human liver microsomes was no more than 4.74 mL/min/kg; the intrinsic clearance, rat liver microsomes is no more than 10.7 mL/min/kg.

Take `COc1ccc(-c2csc3ncnc(Oc4ccc(C)nc4)c23)cc1`: the MDR1-MDCK efflux ratio stood at 0.595; the intrinsic clearance, human liver microsomes turned out to be 78.5 mL/min/kg; the intrinsic clearance, rat liver microsomes worked out at 320 mL/min/kg; the aqueous solubility was found to be 7.81 µg/mL (≈ 22.4 µM).

In the case of `CC1CCC(N(Cc2nnc(C3CCC3)o2)C2CCC(O)CC2)CC1` (centres undefined), the MDR1-MDCK efflux ratio was determined as 2.03; the intrinsic clearance, human liver microsomes came out at 230 mL/min/kg; the intrinsic clearance, rat liver microsomes turned out to be 1610 mL/min/kg.

Regarding `CC#CC(=O)N1CC[C@@H](n2cc(-c3ccc(Oc4c(F)cccc4F)cc3)c3c(N)n[nH]c(=O)c32)C1`, the MDR1-MDCK efflux ratio was 50.2; the fraction unbound, human plasma was determined as 0.00845; the fraction unbound, rat plasma amounted to 0.00935; the intrinsic clearance, human liver microsomes was 41.7 mL/min/kg. Besides, the intrinsic clearance, rat liver microsomes amounted to 519 mL/min/kg and the aqueous solubility came to 2.7 µg/mL (≈ 5.52 µM).
